Test results published in patent publication US4731109A, “Herbicidal 2-haloacetanilides” (Monsanto Company, priority 1982, dated 1988).

Tests used:
Assay in all cases: Greenhouse pre-emergence GR15/GR85 selectivity test
Format in all cases: in vivo
[1] = tested on: corn
Description: (§1) A good grade of top soil is placed in aluminum pans and compacted to a depth of three-eighths to one-half inch from the top of the pan. On the top of the soil is placed a number of seeds or vegetative propagules of various plant species. The soil required to level fill the pans after seeding or adding vegetative propagules is weighed into a pan. The soil and a known amount of the active ingredient applied in a solvent or as a wettable powder suspension are thoroughly mixed, and used to cover the prepared pans. After treatment, the pans are given an initial overhead irrigation of eater, equivalent to one-fourth inch (0.64 cm) rainfall, then watered by subirrigation as need to give adequate moisture for germination and growth. As an alternative procedure, the overhead irrigation may be omitted. Observations are made about 2-3 weeks after seeding and treatment.
(§2) In the discussion and tables of data below, reference is made to herbicide application rates symbolized as "GR15 " and "GR85 "; these rates are given in kilograms per hectare (kg/ha) which are convertible into pounds per acre (lbs/A) by dividing the kg/ha rate by 1.12.
(§3) A further guide to the effectiveness of a chemical as a selective herbicide is the "selectivity factor" ("SF") for a herbicide in given crops and weeds. The selectivity factor is a measure of the relative degree of crop safety and weed injury and is expressed in terms of the GR15 /GR85 ratio, i.e., the GR15 rate for the crop divided by the GR85 rate for the weed, both rates in kg/ha (lb/A). In the tables below, selectivity factors are shown in parenthesis following the GR85 rate for each weed; the symbol "NS" indicates "non-selective". Marginal or undetermined selectivity is indicated by a dash (--).
(§4) In Table IV pre-emergence herbicidal activity data are presented comparing the relative efficacy of the invention compounds and said prior art compounds as selective herbicides against the resistant and troublesome perennial weeds quackgrass and yellow nutsedge in soybeans and corn, respectively. These weeds are commonly associated with such major crops as corn and soybeans. The test data in Table IV were obtained under identical procedural conditions and represent two replicate runs (except for the compound of Example 9 which was present in one comparative test). The test procedure was the same as described for Tables II and III but modified by the application of an initial overhead irrigation equivalent to 1/4" (0.64 cm) rainfall; subsequent watering was accomplished by subirrigation. "NS" means non-selective within the test limits.
(§5) Additionally, pre-emergence herbicidal data from other tests have established that compounds according to this invention also selectively suppress quackgrass, yellow nutsedge and/or other weeds in one or more of the crops cotton, peanuts, bush beans and/or rape. For example, in Table VI are presented data showing the herbicidal selectivity of the compounds of Examples 1 and 2 against quackgrass in rape and snap beans. Unless otherwise noted; greenhouse tests in Table VI and in other tables below involved herbicide treatments by soil incorporation and an initial overhead irrigation followed by subirrigation as described above.

[2] = tested on: Yellow Nutsedge
Description: as §1, with “After treatment, the pans are given an initial overhead irrigation of eater, equivalent to one-fourth inch (0.64 cm) rainfall, then watered by subirrigation as need to give adequate moisture for germination and growth.” left out
as §3
(§6) These weeds are commonly associated with such major crops as corn and soybeans. […] The test procedure was the same as described for Tables II and III but modified by the application of an initial overhead irrigation equivalent to 1/4" (0.64 cm) rainfall; subsequent watering was accomplished by subirrigation. "NS" means non-selective within the test limits.
(§7) Unless otherwise noted; greenhouse tests in Table VI and in other tables below involved herbicide treatments by soil incorporation and an initial overhead irrigation followed by subirrigation as described above.

[3] = tested on: Quackgrass
Description: as §1, with “After treatment, the pans are given an initial overhead irrigation of eater, equivalent to one-fourth inch (0.64 cm) rainfall, then watered by subirrigation as need to give adequate moisture for germination and growth.” left out
as §3, §6, §7

[4] = tested on: soybeans
Description: as §1, §2, §3, §4, §5

[5] = tested on: cotton; conditions: cotton/yellow nutsedge, average of two replicates
Description: as §1, §2, §3, §5
In one multi-crop test in the greenhouse, the compounds of Examples 1, 9, and 10 were tested against yellow nutsedge in cotton, soybeans, corn and rice; each compound was non-selective with respect to yellow nutsedge in rice. However, markedly high selectivities for yellow nutsedge in cotton, soybeans and corn were shown for each of the compounds in the test; the respective GR15 and GR85 rates for these compounds are shown in Table XII selectivity factors are shown in parenthesis after each crop.

[6] = yellow nutsedge in corn, Table IV, Replicate #1
[7] = yellow nutsedge in corn, Table IV, Replicate #2
[8] = yellow nutsedge in soybeans, Table IV, Replicate #1
[9] = yellow nutsedge in soybeans, Table IV, Replicate #2
[10] = quackgrass in corn, Table IV, Replicate #2
[11] = in cotton, average of two replicates
[12] = yellow nutsedge in corn, Table V
[13] = yellow nutsedge in soybeans, Table V
[14] = quackgrass in soybeans, Table V

Row | SMILES | GR15 ([1]; Table IV, Replicate #1) [Kg/Ha] | GR15 ([1]; Table IV, Replicate #2) [Kg/Ha] | GR85 ([2]; Table IV, Replicate #1) [Kg/Ha] | GR85 ([2]; Table IV, Replicate #2) [Kg/Ha] | selectivity factor (GR15/GR85) [2, 6] | selectivity factor (GR15/GR85) [2, 7] | selectivity factor (GR15/GR85) [2, 8] | selectivity factor (GR15/GR85) [2, 9] | GR85 ([3]; Table IV, Replicate #2) [Kg/Ha] | selectivity factor (GR15/GR85) [3, 10] | GR15 ([1]; Table V) [Kg/Ha] | GR85 ([2]; Table V) [Kg/Ha] | selectivity factor (GR15/GR85) [2, 12] | selectivity factor (GR15/GR85) [2, 13] | GR85 ([3]; Table V) [Kg/Ha] | selectivity factor (GR15/GR85) ([3]; quackgrass in corn, Table V) | selectivity factor (GR15/GR85) [3, 14] | other results
1 | COCCN(C(=O)CCl)c1ccccc1C(F)(F)F [A, N-(methoxyethyl)-2'-trifluoromethyl-2-chloroacetanilide, reference compound] | > 2.2 | 2.2 | 1.2 | 1.0 | > 2 | 2 | > 2 | > 2 | > 2.2 | NS (non-selective) | – | – | – | – | – | – | – | GR85 ([3]; Table IV, Replicate #1, extrapolated value): 2.5 Kg/Ha
2 | C#CCOCN(C(=O)CCl)c1c(C)cccc1C(F)(F)F [Example 8, N--(propargyloxymethyl)-2'-trifluoromethyl-6'-methyl-2-chloroacetanilide] | – | – | – | – | – | – | – | – | – | – | – | – | – | – | – | – | – | GR15 ([1]; corn/quackgrass): > 2.2 kg/ha; GR15 ([1]; corn/yellow nutsedge): > 2.2 kg/ha; GR15 ([4]; soybeans/quackgrass): > 2.2 kg/ha; GR15 ([4]; soybeans/yellow nutsedge): 2.2 kg/ha; GR85 ([2]; in corn): 0.95 kg/ha; S.F. (GR15/GR85) ([2]; in corn): 2.5; GR85 [2, 11]: 0.95 kg/ha; S.F. (GR15/GR85) [2, 11]: 2; GR85 ([2]; in soybeans): 0.5 kg/ha; S.F. (GR15/GR85) ([2]; in soybeans): 4.5; GR85 ([3]; both corn and soybeans): 0.5 kg/ha; S.F. (GR15/GR85) ([3]; in corn): 4.5; S.F. (GR15/GR85) ([3]; in soybeans): 4.5; GR15 [5]: 2.0 kg/ha
3 | CCOCCN(C(=O)CCl)c1c(C)cccc1C(F)(F)F [E, N-(ethoxyethyl)-2'-trifluoromethyl-6'-methyl-2-chloroacetanilide, reference compound] | – | – | – | – | – | – | – | – | – | – | 0.67 | 0.22 | 3 | 4 | 0.28 | 2.5 | 3 | –
4 | COCCN(C(=O)CCl)c1c(C)cccc1C(F)(F)F [C, N-(methoxyethyl)-2'-trifluoromethyl-6'-methyl-2-chloroacetanilide, reference compound] | – | – | – | – | – | – | – | – | – | – | 1.3 | 0.28 | 5 | > 10 | 0.28 | 5 | > 10 | –
5 | COCC(C)N(C(=O)CCl)c1c(C)cccc1C(F)(F)F (stereo not shown) [D, N-(methoxyisopropyl)-2'-trifluoromethyl-6'-methyl-2-chloroacetanilide, reference compound] | – | – | – | – | – | – | – | – | – | – | 2.0 | 0.45 | 4 | > 6 | 1.7 | 1 | > 1.5 | GR15 ([4]; Table V): > 2.8 Kg/Ha
6 | CCOCCN(C(=O)CCl)c1ccccc1C(F)(F)F [B, N-(ethoxyethyl)-2'-trifluoromethyl-2-chloroacetanilide, reference compound] | 1.2 | 0.37 | 0.47 | 0.43 | 2.5 | NS (non-selective) | 4 | 4.5 | 0.64 | NS (non-selective) | – | – | – | – | – | – | – | GR85 ([3]; Table IV, Replicate #1): 0.56 Kg/Ha; selectivity factor (GR15/GR85) ([3]; quackgrass in corn, Table IV, Replicate #1): 2; selectivity factor (GR15/GR85) ([3]; quackgrass in soybeans, Table IV, Replicate #1): 3.5; selectivity factor (GR15/GR85) ([3]; quackgrass in soybeans, Table IV, Replicate #2): 3
